US20260166159A1, “KRAS G12D DEGRADATION AGENT, AND PREPARATION METHOD AND USE THEREFOR” (LEADINGTAC PHARMACEUTICAL (SHAOXING) CO., LTD., priority 2022, published 2026)

What was measured:
[1] = molecular target: T1, Human KRAS G12D 6His-tagged (Homo sapiens, UniProt P01116, G12D); assay: KRAS-G12D/GTP binding assay (HTRF); conditions: class symbols
T1 construct: purchased PerkinElmer
In short: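 HTRF kit format: 6His-tagged KRAS G12D incubated with compound (final 0.02-5000 nM, 0.5% DMSO), anti-6His Eu cryptate antibody and GTP Red reagent for 1 h at 25° C. 665/620 nm ratio versus control gave inhibition rates; IC50 by nonlinear fit.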

[2] = test system: KRAS G12D mutant human lung cancer cell A427; assay: 3D cell proliferation inhibition assay, A427; assay type: cell-based; conditions: A-427, 168 h, A427, 7 days, CTG, class symbols
In short: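 Cells seeded at 5×10^2 per well in low-adsorption plates with compounds at 10000–0.026 nM final (0.2% DMSO) and grown 7 days at 37 °C, 5% CO2. Viability by CellTiter-Glo luminescence after 60 min at room temperature; inhibition normalized to DMSO and medium-only controls, IC50 from nonlinear log-concentration fit.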

T1 sequence (P01116 1-188 isoform P01116-2 G12D): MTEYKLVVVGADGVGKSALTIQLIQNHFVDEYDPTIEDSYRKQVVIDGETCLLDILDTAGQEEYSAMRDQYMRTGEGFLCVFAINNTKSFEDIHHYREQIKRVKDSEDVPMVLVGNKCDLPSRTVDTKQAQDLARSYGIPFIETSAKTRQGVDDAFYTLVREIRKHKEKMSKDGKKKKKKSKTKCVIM

Structure (SMILES) | IC50 [1] [nM] | IC50 [2] [nM]
C#Cc1c(F)ccc2cc(O)cc(-c3ncc4c(N5CC6CCC(C5)N6)nc(OCC5(CN6CCN(CCC7CCN(C(=O)c8ccc(Cl)c(N9CCC(=O)NC9=O)c8)CC7)CC6)CC5)nc4c3F)c12 [Example 3, 1-(5-(4-(2-(4-((1-(((4-(3,8-diazabicyclo[3.2.1]octan-3-yl)-7-(8-ethynyl-7-fluoro-3-hydroxynaphthalen-1-yl)-8-fluoropyrido[4,3-d]pyrimidin-2-yl)oxy)methyl)cyclopropyl)methyl)piperazin-1-yl)ethyl)piperidine-1-carbonyl)-2-chlorophenyl)dihydropyrimidine-2,4(1H,3H)-dione] | ≤ 50 | 1000 to 10000
CCc1c(F)ccc2cc(O)cc(-c3ncc4c(N5CC6CCC(C5)N6)nc(OCC5(CN6CCN(CC7CCC8(CC7)CCN(C(=O)c7ccc(Cl)c(N9CCC(=O)NC9=O)c7)CC8)CC6)CC5)nc4c3F)c12 [Example 30, 1-(5-(9-((4-((1-(((4-(3,8-diazabicyclo[3.2.1]octan-3-yl)-7-(8-ethyl-7-fluoro-3-hydroxynaphthalen-1-yl)-8-fluoropyrido[4,3-d]pyrimidin-2-yl)oxy)methyl)cyclopropyl)methyl)piperazin-1-yl)methyl)-3-azaspiro[5.5]undecane-3-carbonyl)-2-chlorophenyl)dihydropyrimidine-2,4(1H,3H)-dione] | 50 to 100 | ≤ 50
C#Cc1c(F)ccc2cc(O)cc(-c3ncc4c(N5CC6CCC(C5)N6)nc(OCC5(CN6CCN(CCCC7CCN(C(=O)c8ccc(Cl)c(N9CCC(=O)NC9=O)c8)CC7)CC6)CCC5)nc4c3F)c12 [Example 24, 1-(5-(4-(3-(4-((1-(((4-(3,8-diazabicyclo[3.2.1]octan-3-yl)-7-(8-ethynyl-7-fluoro-3-hydroxynaphthalen-1-yl)-8-fluoropyrido[4,3-d]pyrimidin-2-yl)oxy)methyl)cyclobutyl)methyl)piperazin-1-yl)propyl)piperidine-1-carbonyl)-2-chlorophenyl)dihydropyrimidine-2,4(1H,3H)-dione] | ≤ 50 | 100 to 500
C#Cc1c(F)ccc2cc(O)cc(-c3ncc4c(N5CC6CCC(C5)N6)nc(OCC5(CN6CCC(CCOCC7CCN(C(=O)c8ccc(Cl)c(N9CCC(=O)NC9=O)c8)CC7)CC6)CC5)nc4c3F)c12 [Example 10] | ≤ 50 | 100 to 500
C#Cc1c(F)ccc2cc(O)cc(-c3ncc4c(N5CC6CCC(C5)N6)nc(OCC5(CN6CCC(COCCC7CCN(C(=O)c8ccc(Cl)c(N9CCC(=O)NC9=O)c8)CC7)CC6)CC5)nc4c3F)c12 [Example 21, 1-(5-(4-(2-((1-((1-(((4-(3,8-diazabicyclo[3.2.1]octan-3-yl)-7-(8-ethynyl-7-fluoro-3-hydroxynaphthalen-1-yl)-8-fluoropyrido[4,3-d]pyrimidin-2-yl)oxy)methyl)cyclopropyl)methyl)piperidin-4-yl)methoxy)ethyl)piperidine-1-carbonyl)-2-chlorophenyl)dihydropyrimidine-2,4(1H,3H)-dione] | ≤ 50 | 100 to 500
C#Cc1c(F)ccc2cc(O)cc(-c3ncc4c(N5CC6CCC(C5)N6)nc(OCC5(CN6CCN(CC7CCC8(CC7)CCN(C(=O)c7ccc(Cl)c(N9CCC(=O)NC9=O)c7)CC8)CC6)CC5)nc4c3F)c12 [Example 6, 1-(5-(9-((4-((1-(((4-(3,8-diazabicyclo[3.2.1]octan-3-yl)-7-(8-ethynyl-7-fluoro-3-hydroxynaphthalen-1-yl)-8-fluoropyrido[4,3-d]pyrimidin-2-yl)oxy)methyl)cyclopropyl)methyl)piperazin-1-yl)methyl)-3-azaspiro[5.5]undecane-3-carbonyl)-2-chlorophenyl)dihydropyrimidine-2,4(1H,3H)-dione] | ≤ 50 | ≤ 50
C#Cc1c(F)ccc2cc(O)cc(-c3ncc4c(N5CC6CCC(C5)N6)nc(OCC5(CN6CCN(CCCCC7CCN(C(=O)c8ccc(Cl)c(N9CCC(=O)NC9=O)c8)CC7)CC6)CC5)nc4c3F)c12 [Example 5, 1-(5-(4-(4-(4-((1-(((4-(3,8-diazabicyclo[3.2.1]octan-3-yl)-7-(8-ethynyl-7-fluoro-3-hydroxynaphthalen-1-yl)-8-fluoropyrido[4,3-d]pyrimidin-2-yl)oxy)methyl)cyclopropyl)methyl)piperazin-1-yl)butyl)piperidine-1-carbonyl)-2-chlorophenyl)dihydropyrimidine-2,4(1H,3H)-dione] | ≤ 50 | 50 to 100
C#Cc1cccc2cc(O)cc(-c3ncc4c(N5CC6CCC(C5)N6)nc(OCC5(CN6CCN(CC7CCC8(CC7)CCN(C(=O)c7ccc(Cl)c(N9CCC(=O)NC9=O)c7)CC8)CC6)CC5)nc4c3F)c12 [Example 57, 1-(5-(9-((4-((1-(((4-(3,8-diazabicyclo[3.2.1]octan-3-yl)-7-(8-ethynyl-3-hydroxynaphthalen-1-yl)-8-fluoropyrido[4,3-d]pyrimidin-2-yl)oxy)methyl)cyclopropyl)methyl)piperazin-1-yl)methyl)-3-azaspiro [5.5]undecane-3-carbonyl)-2-chlorophenyl)dihydropyrimidine-2,4(1H,3H)-dione] | ≤ 50 | ≤ 50
C#Cc1c(F)ccc2cc(O)cc(-c3ncc4c(N5CC6CCC(C5)N6)nc(OCC(C)(C)CN5CCN(CCCC6CCN(C(=O)c7ccc(Cl)c(N8CCC(=O)NC8=O)c7)CC6)CC5)nc4c3F)c12 [Example 23, 1-(5-(4-(3-(4-(3-((4-(3,8-diazabicyclo[3.2.1]octan-3-yl)-7-(8-ethynyl-7-fluoro-3-hydroxynaphthalen-1-yl)-8-fluoropyrido[4,3-d]pyrimidin-2-yl)oxy)-2,2-dimethylpropyl)piperazin-1-yl)propyl)piperidine-1-carbonyl)-2-chlorophenyl)dihydropyrimidine-2,4(1H,3H)-dione] | ≤ 50 | 100 to 500
C#Cc1c(F)ccc2cc(O)cc(-c3ncc4c(N5CC6CCC(C5)N6)nc(OCC5(CN6CCN(CC7CCC8(CC7)CCN(C(=O)c7ccc(OC)c(N9CCC(=O)NC9=O)c7)CC8)CC6)CCC5)nc4c3F)c12 [Example 25, 1-(5-(9-((4-((1-(((4-(3,8-diazabicyclo[3.2.1]octan-3-yl)-7-(8-ethynyl-7-fluoro-3-hydroxynaphthalen-1-yl)-8-fluoropyrido[4,3-d]pyrimidin-2-yl)oxy)methyl)cyclobutyl)methyl)piperazin-1-yl)methyl)-3-azaspiro[5.5]undecane-3-carbonyl)-2-methoxyphenyl)dihydropyrimidine-2,4(1H,3H)-dione] | ≤ 50 | 100 to 500
C#Cc1c(F)ccc2cc(O)cc(-c3ncc4c(N5CC6CCC(C5)N6)nc(OCC5(CN6CCN(CC7CCC8(CC7)CCN(C(=O)c7ccc(Cl)c(N9CCC(=O)N(C)C9=O)c7)CC8)CC6)CC5)nc4c3F)c12 [Example 17, 1-(5-(9-((4-((1-(((4-(3,8-diazabicyclo[3.2.1]octan-3-yl)-7-(8-ethynyl-7-fluoro-3-hydroxynaphthalen-1-yl)-8-fluoropyrido[4,3-d]pyrimidin-2-yl)oxy)methyl)cyclopropyl)methyl)piperazin-1-yl)methyl)-3-azaspiro[5.5]undecane-3-carbonyl)-2-chlorophenyl)-3-methyldihydropyrimidine-2,4(1H,3H)-dione] | ≤ 50 | 50 to 100
CCc1cccc2cc(O)cc(-c3ncc4c(N5CC6CCC(C5)N6)nc(OCC5(CN6CCN(CCCC7CCN(C(=O)c8ccc(Cl)c(N9CCC(=O)NC9=O)c8)CC7)CC6)CC5)nc4c3F)c12 [Example 19, 1-(5-(4-(3-(4-((1-(((4-(3,8-diazabicyclo[3.2.1]octan-3-yl)-7-(8-ethyl-3-hydroxynaphthalen-1-yl)-8-fluoropyrido[4,3-d]pyrimidin-2-yl)oxy)methyl)cyclopropyl)methyl)piperazin-1-yl)propyl)piperidine-1-carbonyl)-2-chlorophenyl)dihydropyrimidine-2,4(1H,3H)-dione] | ≤ 50 | 100 to 500
C#Cc1c(F)ccc2cc(O)cc(-c3ncc4c(N5CC6CCC(C5)N6)nc(OCC56CC(CN7CCN(CC8CCC9(CC8)CCN(C(=O)c8ccc(Cl)c(N%10CCC(=O)NC%10=O)c8)CC9)CC7)(C5)C6)nc4c3F)c12 [Example 33, 1-(5-(9-((4-((3-(((4-(3,8-diazabicyclo[3.2.1]octan-3-yl)-7-(8-ethynyl-7-fluoro-3-hydroxynaphthalen-1-yl)-8-fluoropyrido[4,3-d]pyrimidin-2-yl)oxy)methyl)bicyclo[1.1.1]pentan-1-yl)methyl)piperazin-1-yl)methyl)-3-azaspiro[5.5]undecane-3-carbonyl)-2-chlorophenyl)dihydropyrimidine-2,4(1H,3H)-dione] | 100 to 500 | 100 to 500
C#Cc1c(F)ccc2cc(O)cc(-c3ncc4c(N5CC6CCC(C5)N6)nc(OCC5(CN6CCC(COCC7CCN(C(=O)c8ccc(Cl)c(N9CCC(=O)NC9=O)c8)CC7)CC6)CC5)nc4c3F)c12 [Example 13, 1-(5-(4-(((1-((1-(((4-(3,8-diazabicyclo[3.2.1]octan-3-yl)-7-(8-ethynyl-7-fluoro-3-hydroxynaphthalen-1-yl)-8-fluoropyrido[4,3-d]pyrimidin-2-yl)oxy)methyl)cyclopropyl)methyl)piperidin-4-yl)methoxy)methyl)piperidine-1-carbonyl)-2-chlorophenyl)dihydropyrimidine-2,4(1H,3H)-dione] | ≤ 50 | 50 to 100
C#Cc1c(F)ccc2cc(O)cc(-c3ncc4c(N5CC6CCC(C5)N6)nc(OC[C@@H]5CCCN5CCC5CCC6(CC5)CCN(C(=O)c5ccc(Cl)c(N7CCC(=O)NC7=O)c5)CC6)nc4c3F)c12 [Example 32, 1-(5-(9-(2-((S)-2-(((4-(3,8-diazabicyclo[3.2.1]octan-3-yl)-7-(8-ethynyl-7-fluoro-3-hydroxynaphthalen-1-yl)-8-fluoropyrido[4,3-d]pyrimidin-2-yl)oxy)methyl)pyrrolidin-1-yl)ethyl)-3-azaspiro[5.5]undecane-3-carbonyl)-2-chlorophenyl)dihydropyrimidine-2,4(1H,3H)-dione] | 500 to 1000 | 1000 to 10000
